Measurements reported in the supplement of paper PMC10307832.

Assays:
Test in all cases: relative viability (nuclei count vs DMSO), 5 days (fraction); higher = more cells survive
Ricolinostat + Dasatinib = compound: O=C(CCCCCCNC(=O)c1cnc(N(c2ccccc2)c2ccccc2)nc1)NO [Ricolinostat] + Cc1nc(Nc2ncc(C(=O)Nc3c(C)cccc3Cl)s2)cc(N2CCN(CCO)CC2)n1 [Dasatinib] (partner 0.075 µM)
Procedure, shortened: (§1)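 Medians of duplicate plates are given as relative viability. That measure is the nuclei count in treated wells divided by the count in vehicle wells. Counts were taken on 4× images of lung cancer cell lines in 1536-well plates, 5 days after pin-tool dosing the day after seeding with one drug alone or a fixed anchor-drug dose plus five library-drug doses (not always all listed) in √10 steps.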

[1] = compound: C1=CC=C(C(=C1)C2=CC=C(C=C2)C3=CSC4=C3C(=C(C(=O)N4)C#N)O)O + Nc1nc2[nH]cc(CCc3ccc(C(=O)N[C@@H](CCC(=O)O)C(=O)O)cc3)c2c(=O)[nH]1 [Pemetrexed] (partner 0.2 µM)
Procedure, shortened: as §1

TGX 221 + AZD7762 = compound: CC1=CN2C(=O)C=C(N=C2C(=C1)C(C)NC3=CC=CC=C3)N4CCOCC4 [TGX 221] + NC(=O)Nc1cc(-c2cccc(F)c2)sc1C(=O)N[C@H]1CCCNC1 [AZD7762] (partner 0.2 µM)
Procedure, shortened: as §1

Ricolinostat + Foretinib = compound: O=C(CCCCCCNC(=O)c1cnc(N(c2ccccc2)c2ccccc2)nc1)NO [Ricolinostat] + COc1cc2c(Oc3ccc(NC(=O)C4(C(=O)Nc5ccc(F)cc5)CC4)cc3F)ccnc2cc1OCCCN1CCOCC1 [Foretinib] (partner 0.25 µM)
Procedure, shortened: as §1

Cell Line	relative viability (Ricolinostat + Dasatinib; first compound 0.08 µM)	relative viability (Ricolinostat + Dasatinib; first compound 0.253 µM)	relative viability (Ricolinostat + Dasatinib; first compound 0.8 µM)	relative viability (Ricolinostat + Dasatinib; first compound 2.53 µM)	relative viability ([1]; first compound 0.08 µM)	relative viability ([1]; first compound 0.253 µM)	relative viability ([1]; first compound 0.8 µM)	relative viability ([1]; first compound 2.53 µM)	relative viability ([1]; first compound 8 µM)	relative viability (TGX 221 + AZD7762; first compound 0.08 µM)	relative viability (TGX 221 + AZD7762; first compound 0.253 µM)	relative viability (TGX 221 + AZD7762; first compound 0.8 µM)	relative viability (TGX 221 + AZD7762; first compound 2.53 µM)	relative viability (TGX 221 + AZD7762; first compound 8 µM)	relative viability (Ricolinostat + Foretinib; first compound 0.253 µM)	relative viability (Ricolinostat + Foretinib; first compound 0.8 µM)	relative viability (Ricolinostat + Foretinib; first compound 2.53 µM)	relative viability (Ricolinostat + Foretinib; first compound 0.08 µM)
201T	0.471	0.571	0.603	0.498	0.354	0.331	0.358	0.353	0.298	0.55	0.685	0.611	0.615	0.569	1.09	1.14	1.08	
A549															0.99	0.928	0.917	0.859
A-427		0.621	0.583	0.471	0.941	1.11	1.03	1.01	0.989	0.728	0.712	0.8	0.762	0.698	1.17	0.925	1.14	
ABC-1	0.556	0.632	0.563	0.489						0.859	0.908	0.743	0.749	1.08	0.901	1.11	0.912	0.88
BEN	0.269	0.322	0.279	0.213	0.694	0.786	0.761	0.857	0.761	0.639	0.695	0.737	0.697	0.661	0.598	0.483	0.481	0.657
CAL-12T	0.422	0.417	0.48	0.664	0.958	1.23	1.24	1.43	1.33	0.637	0.656	0.542	0.577	0.666	1.17	1.12	1.35	1.04
COR-L23	0.373	0.477	0.471	0.242	0.222	0.228	0.212	0.189	0.19						0.965	0.87	0.653	0.973
COR-L 105		0.368	0.397	0.401	0.948	1.16	1.1	1.11	1.15						0.874	0.917	1.16	
Calu-6															0.93	0.848	0.83	0.923
ChaGo-K-1	0.579	0.49	0.584	0.532	0.271	0.257	0.256	0.251	0.256	0.922	0.826	0.873	0.827	0.838	0.912	0.861	0.86	0.895
EBC-1															0.101	0.0995	0.0994	0.0899
EKVX	0.471	0.658	0.577	0.606	0.425	0.497	0.399	0.465	0.336	0.685	0.607	0.601	0.579	0.594	0.846		0.725	0.845
EMC-BAC-2	0.316	0.291	0.27	0.242	0.447	0.618	0.444	0.451	0.418	1.06	1.05	1.13	1.07	0.992	1.03	0.942	0.851	0.905
EPLC-272H	0.308	0.387	0.336	0.212	0.346	0.249	0.297	0.32	0.441	0.24	0.222	0.161	0.171	0.197	0.704	0.442	0.354	0.632
H3255	0.347	0.308	0.318	0.308	0.561	0.563	0.561	0.591	0.54	0.766	0.907	0.932	0.822	0.71	0.962	0.685	0.589	0.626
HARA	0.271	0.224	0.217	0.192	0.241	0.274	0.219	0.197	0.264	0.464	0.38	0.513	0.519	0.274	0.901	0.767	0.646	0.968
HCC-15	0.537	0.665	0.642	0.653	0.237	0.232	0.213	0.242	0.215	1.1	1.02	0.673	1.21	1.13	1.03	1.05	1.05	0.876
HCC-44					0.702	0.61	0.649	0.613	0.57	0.992	1.04	1.02	1.1	1.09				
HCC-78		0.438	0.356	0.281	0.79	0.946	0.903	0.959	0.883	0.483	0.697	0.55	0.545	0.507	0.526	0.553	0.427	
HCC-366	0.487	0.613	0.576	0.451		0.172	0.168	0.176	0.165	0.325	0.202	0.242	0.0941	0.146	0.837	0.975	0.817	0.915
HCC-827	0.24	0.363	0.287	0.361	0.283	0.25	0.244	0.305	0.282	0.197	0.269	0.233	0.201	0.148	1.06	1.04	0.964	0.998
HOP-62	0.533	0.669	0.655	0.423	0.364	0.336	0.301	0.348	0.279	0.424	0.545	0.661	0.788	0.641	1.03	1	1.09	1
